How the values were obtained:
Assay in all cases: Antimicrobial screening, agar dilution
Assay type in all cases: cell-based
Details in all cases: after 10, 20, 40 and 60 minutes at all dilutions 1:100, 1:200, 1:400, 1:800
Candida albicans = tested on: Candida albicans
Experimental: (§1) The antibacterial properties of the synthesized compound compound (9-(2-hydroxypyridin-3-yl)-10-(2-phenylethyl)-3,3,6,6-tetramethyl-3,4,6,7,9,10-hexahydroacridine1,8(2H,5H)-dione) were studied by the method of agar dilution. Test solutions of each compound was prepared in concentration of 1% using dimethylformamide as a solvent then they are diluted in physiological solution to obtain the final experimental dilutions 1:100, 1:200, 1:400, 1:800. The effect of these substances are compared with furacillin in a controllable study. The testing microbes used were gram positive bacteria Staphylococcus aureus, gram negative bacteria Pseudomonas aeruginosa and Escherichia coli and Candida albicans fungus. The experiments used for this survey were meat-pentonlu agar (EPA) for cultivation of bacteria and Saburo enviromnent for the fungus. Each experiment used 1 mL of test solution on each plate […]. Two drops of emulsified with microbes feel were added. All experimental samples were taken from the agar after 10, 20, 40, 60 minutes in the environment on the basis of Patrk planted. The bacteria were cultivated at a temperature: of 37° C for 1 day and the mushroom was kept in a thermostat for […] at a temperature of 28° C. Then results were checked.

Escherichia coli = tested on: Escherichia coli
Experimental: as §1

Staphylococcus aureus = tested on: Staphylococcus aureus
Experimental: as §1

Pseudomonas aeruginosa = tested on: Pseudomonas aeruginosa
Experimental: as §1

Measured: inhibition activity (in words)

CC1(C)CC(=O)C2=C(C1)N(CCc1ccccc1)C1=C(C(=O)CC(C)(C)C1)C2c1cccnc1O [9-(2-hydroxypyridin-3-yl)-10-(2-phenylethyl)-3,3,6,6-tetramethyl-3,4,6,7,9,10-hexahydroacridine1,8(2H,5H)-dione]
highest inhibition activity: all assays above

Source: patent US11919878B1, “9-(2-hydroxypyridin-3-yl)-10-(2-phenylethyl)-3,3,6,6-tetramethyl-3,4,6,7,9,10-hexahydroacridine1,8(2H,5H)-dione as an antimicrobial compound” (KING FAISAL UNIVERSITY, priority 2023, dated 2024)
